Test system: dicarbonyl compounds (3-deoxyglucosone) in the intraperitoneal fluid
Assay: 3-deoxyglucosone in intraperitoneal fluid of uremic rat models, neutral peritoneal dialysis fluid (Experimental Example 3)
Assay type: in vivo, rats
Conditions: oral 30 mg/rat/day, 7 days
Text: Kidney subtotal excision rats with chronic renal failure (uremic rat models) were produced in the same manner as in Experimental Example 2. Distilled water for injection was orally administered compulsorily to Group 1 (control group) (n=3) once a day, and the pyridoxamine salt aqueous solution was orally administered compulsorily to Group 2 (pyridoxamine salt orally administered group) once a day. On the 6th day of administration, after distilled water for injection and the pyridoxamine salt aqueous solution were orally administered, respectively, to Groups 1 and 2, 20 ml of a neutral peritoneal dialysis fluid (pH 6.5 to 7.5) to be mixed before use (trade name: Dianeal (registered trademark)-N PD-4-1.5 mixture; Baxter Limited) (Table 1) was injected intraperitoneally to both groups, in place of the acid peritoneal dialysis fluid administered in Experimental Example 2. As explained in Experimental Example 1, the peritoneal dialysis fluid was composed of an upper-compartment solution and a lower-compartment solution separated by a partition, and both solutions were mixed immediately before being injected into the peritoneal cavity. […] The concentration of dicarbonyl compounds (3-deoxyglucosone) in the intraperitoneal fluid of each group was measured by HPLC in the same manner as in Experimental Example 2.

Cc1ncc(CO)c(CN)c1O.Cl.Cl [pyridoxamine dihydrochloride, Pyridoxamine dihydrochloride]
3-deoxyglucosone concentration in the peritoneal cavity relative to control group (neutral peritoneal dialysis fluid): less than one-half | 3-deoxyglucosone concentration in intraperitoneal fluid (neutral peritoneal dialysis fluid (pH 6.5 to 7.5) Dianeal-N PD-4-1.5 mixture, 20 ml i.p., control group 23.4): 10.3 µg/mL
